Test results taken from the supplement of paper PMC3974653.
Structures can show the parent of a compound that is named as a salt.

System: MTT (mouse pheochromocytoma)
Test: IC50 of cell viability (ATP content)
Settings: (24 or 48 h)
Method in brief: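 Library compounds were tested at 8 final concentrations (0.5 nM to 46 µM) on MTT mouse pheochromocytoma cells for 24 or 48 hrs, with readout by CellTiter-Glo ATP luminescence. Signals were normalised with positive-control wells at 100% and DMSO wells at 0%. IC50 values were obtained by a four-parameter logistic fit.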

Compound | IC50 of cell viability [µM]
CC(C)NCC(O)c1ccccc1Cl (centres undefined) [CLORPRENALINE HYDROCHLORIDE] | > 46
CN1CCN(CC1)\C2=N\C3=C(NC4=C2C=CC=C4)C=CC(=C3)Cl [CLOZAPINE] | > 46
CCc1cccc(N(C)C(=N)Nc2cccc3ccccc23)c1.Cl [CNS-1102] | > 46
CC1CNC(=O)CCC2(C)C(CC(N)=O)C3[N+]/4=C2/C(=C\5C(CCC(N)=O)C(C)(C)C\6=[N+]5[Co-3]47(CC8OC(C(O)C8O)[N]9C=NC%10=C(N)N=CN=C9%10)(N%11/C(=C(C)\C%12=[N+]7\C(=C6)C(CCC(N)=O)C%12(C)CC(N)=O)C(CCC(N)=O)C(C)(CC(N)=O)C3%11C)[N+]%13=C[N](C%14O[C@H](CO)[C@@H](O[P]([O-])(=O)O1)C%14O)C%15=C%13C=C(C)C(=C%15)C)C (some centres undefined) [COENZYME B12] | > 46
CCCCCCCCCCCCCCCC(=O)OCC(COP(=O)(O)OCC[N+](C)(C)C)OC(=O)CCCCCCCCCCCCCCC (centres undefined) [COLFOSCERIL PALMITATE] | > 46
CCC(C)C1NC(=O)C(CCNCS(=O)(=O)[O-])NC(=O)C(NC(=O)C(CCNCS(=O)(=O)[O-])NC(=O)C(NC(=O)C(CCNCS(=O)(=O)[O-])NC(=O)CCCCC(C)C)C(C)O)CCNC(=O)C(C(C)O)NC(=O)C(CCNCS(=O)(=O)[O-])NC(=O)C(CCNCS(=O)(=O)[O-])NC(=O)C(C(C)CC)NC1=O.[Na+].[Na+].[Na+].[Na+].[Na+] (centres undefined) [COLISTIMETHATE SODIUM] | > 46
CCC(C)C(=O)OC1CC/C=C2/C=C\C(C)C(CCC3CC(O)CC(=O)O3)[C@H]12 (some centres undefined) [COMPACTIN] | > 46
CC1C2CCC3C4C\C=C/5CC(CC[C@@]5(C)C4CC[C@]23CN1C)N(C)C (some centres undefined) [CONESSINE] | > 46
CCCC1CCCCN1 (centres undefined) [CONIINE] | > 46
C[C@]\12CCC(=O)\C=C1CCC3C4CC[C@](O)(C(=O)CO)[C@]4(C)CC(=O)C23 (some centres undefined) [CORTISONE] | > 46
CCO[P](=S)(OCC)OC1=CC=C2\C(=C(Cl)/C(=O)OC2=C1)C [COUMOPHOS] | > 46
CC1(C)CCC(NC(=O)[C@@H](N)CCC(=O)O)CC1 [CR 2249] | > 46
Cc1cc(C)c(NC(=O)C[C@H](CC(=O)[O-])c2cccc3ccccc23)c(C(=O)N2CCC3(CCCC3)CC2)c1.[Na+] [CR 2945] | > 46
CN1CC(=O)NC1=N [CREATININE] | > 46
CC(=O)Oc1cccc(C)c1 [CRESYL ACETATE, M-] | > 46
CC(=O)Oc1ccc(C)cc1 [CRESYL ACETATE] | > 46
CC1CC(OC(=O)C(O)c2ccccc2)CC(C)(C)C1 (centres undefined) [CYCLANDELATE] | > 46
CC(=O)OC1=CC=C(C=C1)C(=C2/CCCCC2)\C3=CC=C(OC(C)=O)C=C3 [CYCLOFENIL] | > 46
N[S+]([O-])(=O)C1=C(Cl)C=C2NC(N[S+]([O-])(=O)C2=C1)C3CC\4CC3\C=C4 (centres undefined) [CYCLOTHIAZIDE] | > 46
CN1CCC(CC1)=C2C3=C(C=CC=C3)\C=C/C4=C2C=CC=C4 [CYPROHEPTADINE] | > 46
O=C(Nc1ccc(Cl)c(Cl)c1)C1CC1 [CYPROMID] | > 46
CC(=O)[C@]1(O)CCC2C3/C=C(Cl)\C4=C\C(=O)C5CC5[C@@]4(C)C3CC[C@@]12C (some centres undefined) [CYPROTERONE] | > 46
Nc1nc(N)nc(NC2CC2)n1 [CYROMAZINUM] | > 46
NC(CS)C(=O)O (centres undefined) [CYSTEINE HYDROCHLORIDE] | > 46
NC(CSSCC(N)C(=O)O)C(=O)O (centres undefined) [CYSTINE] | > 46
CNC(=O)C(N)CSC(C)C1=C(C)C2=Cc3c(C(C)SCC(N)C(=O)NC)c(C)c4[n]3[Fe]35[n]6c(c(C)c(CCC(=O)O)c6=CC6=[N+]3C(=C4)C(C)=C6CCC(=O)O)=CC1=[N+]25 (centres undefined) [CYTOCHROME C] | > 46
[O]=[Cd] [Cadmium oxide] | > 46

Compound | IC50 of cell viability [µM]
CCOC(=O)NNc1ccc(N(CC)CC(C)O)nn1 (centres undefined) [Cadralazine] | > 46
Cn1c(=O)c2c(ncn2C)n(C)c1=O [Caffeine, citrated] | > 46
CC(=O)CCC(=O)[O-] [Calcium Levulinate] | > 46
CC1(C)[C@@H]2CC[C@@]1(C)C(=O)C2 [Camphor] | > 46
C=CC(=O)Nc1cc2c(Nc3ccc(F)c(Cl)c3)ncnc2cc1OCCCN1CCOCC1 [Canertinib] | > 46
CCCCCc1cc(O)c2c(c1)OC(C)(C)c1ccc(C)cc1-2 [Cannabinol] | > 46
[K+].C[C@@]12CCC(=O)\C=C1\C=C/[C@@H]3[C@@H]2CC[C@]4(C)[C@@H]3CC[C@]4(O)CCC([O-])=O [Canrenoic acid potassium salt] | > 46
CCCCCOC(=O)Nc1nc(=O)n(C2O[C@H](C)[C@@H](O)[C@@H]2O)cc1F (some centres undefined) [Capecitabine] | > 46
CC1(C)S[C@@H]2[C@H](NC(=O)CC3=CC=CC=C3)C(=O)[N@@]2[C@@H]1C(O)=O [Capicillin] | > 46
COc1cc(CNC(=O)CCCC/C=C/C(C)C)ccc1O [Capsaicin] | > 46
NC(=O)N1C2=C(C=CC=C2)\C=C/C3=C1C=CC=C3 [Carbamazepine] | > 46
CNC(=O)Oc1cccc2ccccc12 [Carbaryl] | > 46
CN1CC(O)C2=C/C(=N/NC(N)=O)C(=O)C=C21 (centres undefined) [Carbazochrome] | > 46
CC1(C)S[C@@H]2[C@H](NC(=O)C(C(=O)Oc3ccc4c(c3)CCC4)c3ccccc3)C(=O)N2[C@H]1C(=O)O (some centres undefined) [Carbenicillin indanyl] | > 46
[Na+].[Na+].CC1(C)[C@H](CC[C@@]2(C)[C@H]1CC[C@@]3(C)[C@H]2C(=O)\C=C4\[C@H]5C[C@@](C)(CC[C@]5(C)CC[C@]34C)C([O-])=O)OC(=O)CCC([O-])=O [Carbenoxolone disodium salt] | > 46
CCOC(=O)N1\C=C/N(C)C1=S [Carbimazole] | > 46
CN(C)CCOC(c1ccc(Cl)cc1)c1ccccn1 (centres undefined) [Carbinoxamine maleate] | > 46
CCOC(=O)NC(O)C(Cl)(Cl)Cl (centres undefined) [Carbocloral] | > 46
S=C=S [Carbon disulfide] | > 46
ClC(Cl)(Cl)Cl [Carbon tetrachloride] | > 46
CCCCNC(=O)N[S+](=O)([O-])c1ccc(N)cc1 [Carbutamide] | > 46
CCCC(C)(COC(N)=O)COC(=O)NC(C)C (centres undefined) [Carisoprodol] | > 46
O=NN(CCCl)C(=O)NCCCl [Carmustine] | > 46
CCN(CC)CCN1C(=O)\C(=N/C2=CC=CC=C12)CC3=CC=C(OC)C=C3 [Caroverine hydrochloride] | > 46
O=c1[nH]c(=O)c2ccccc2o1 [Carsalam] | > 46
CC(C)(C)NC[C@H](O)COc1cccc2c1CCC(=O)N2 [Carteolol hydrochloride] | > 46
N[C@@H](C(=O)N[C@H]1[C@H]2SC\C(=C(/N2C1=O)C(O)=O)Cl)C3=CC=CC=C3 [Cefaclorum] | > 46
